Measured values reported in patent EP1115421B1, “USE OF GLP-1 OR ANALOGS IN TREATMENT OF STROKE” (ELI LILLY AND COMPANY, priority 1998, dated 2009).
Where no end group is shown, it is not given here.

What was measured:
NIDDM patients = assay: Infusion during meals in NIDDM patients, blood glucose (Example 2); assay type: in vivo; conditions: while infused, three hours during breakfast, lunch and dinner; compared with insulin injection; five NIDDM patients
[1] = tested on: patients having non-insulin dependent diabetes (NIDDM); assay: Overnight subcutaneous infusion in NIDDM patients, blood glucose (Example 1); assay type: in vivo

Q: For “GLP-1(7-36) amide (HAEGTFTSDVSSYLEGQAAKEFIAWLVKGR-NH2; UniProt P01275 98-127, looked up, fragment) [truncated glucagon-like peptide 1, C-terminal amide]”, which post-prandial glucose excursions (NIDDM patients) is on record?
A: eliminated

Q: And the metabolic control ([1]; compared with continuous insulin infusion, average blood glucose significantly lower at 23:00, 0:00 and 1:00)?
A: better than that achieved by insulin

Q: And the “effect on blood glucose” value ([1]; subcutaneous infusion 1.2 pmol/kg/hr, ten hours during the night, five NIDDM patients)?
A: nearly normalized blood glucose
